Results from paper PMC5317004 (Scientific Reports, 2017).

Tested on: chimeric α7-GluClβR
Test: Voltage ramps during current decline: reversal potential, chloride chord conductance, IVM rate constants
Assay type: cell-based, chick nAChR α7 / C. elegans GluClβ
Description: Figure 6 Chloride conductance of α7-GluClβRs. Representative whole-cell current traces elicited by: (A) ACh alone and (B) ACh to which IVM was added after the current peak. Recordings were performed at −60 mV with intervening 200-ms-long voltage ramps applied from −80 to +20 mV during the current decline, giving output currents r1–r13. *, time lapse of ~1 sec between protocols’ exchange (see “Supplementary Materials and Methods”). Traces in A and B were recorded from the same cell, with an intermediate 74-sec-long wash. Right panels show superimposition of the output currents. (C,D) Current-voltage (I/V) relations extracted from A and B, respectively (r13 in D overlaps the x-axis). (E) Reversal potentials (Erev) extracted from the voltage-ramps’ output currents of A (black squares) and B (red circles), plotted as a function of time (0 sec, time of r1). (F) Decay of chloride chord conductance plotted as a function of time, in the absence or presence of IVM. The conductance points were calculated at −65 mV based on the voltage-ramps’ output currents shown in A and B. Exponential fits (Eq. 6) are shown. (G,H) Normalized (Norm.) conductance (G), current (I), intracellular Cl^− ion concentration ([Cl]i), and electrochemical driving force (VDF) plotted as a function of time for ACh-dependent responses in the absence (panel G) or presence (panel H) of IVM (relating to responses in A and B, respectively). (I,J) Decay of chloride chord conductance plotted as a function of time in representative cells exposed to different IVM concentrations. (K,L,M) Averaged normalized chloride chord conductance (Norm. G) plotted as a function of time under different IVM concentrations. In each cell, each conductance was normalized to the conductance extracted from r1 of the ACh-alone application. N = 7, 11 and 8 in K, L and M, respectively. Error bars are SEM. (N) 1/τIVM plotted as a function of IVM concentration, using equation 7 for curve fitting by linear regression (r^2 = 0.999). 26 cells were analyzed to obtain the averaged 1/τIVM points. Error bars are SEM.
We then took advantage of the capability of IVM to accelerate the current decline in order to determine the binding affinity of IVM. To this end, the voltage ramps’ output currents obtained in the presence of IVM were subtracted from their counterpart currents obtained in the absence of IVM. Then, we calculated the chloride conductance based on the resulting subtracted currents at each ramp. This chloride conductance is hereafter termed GIVM. In each experimented cell, we fitted exponential curves to the first 5-6 conductance points, where there was no substantial difference between the ∆Erev values in the absence or presence of IVM. These exponential fits for the GIVM points were obtained at various IVM concentrations, and they actually provide the time constant of the IVM-dependent Cl^−-conductance decay (τIVM).
Chord conductance (G) was calculated by using equation 5 as follows: […]
The relationship between the conductance values and time was plotted for each cell, and the time constant of conductance decay was determined by fitting an exponential curve to the data points using equation 6 as follows: […]
To calculate the IVM association (kf) and dissociation (kb) rate constants, a curve was fitted to the 1/τIVM values by a linear regression using equation 7 as follows: where τIVM is the time constant of the IVM-dependent Cl^−-conductance decay, and [IVM] is the concentration of IVM. […]

Compound: CC[C@H](C)[C@H]1O[C@]2(CC[C@@H]1C)C[C@@H]1C[C@@H](C/C=C(\C)[C@@H](O[C@H]3C[C@H](OC)[C@@H](O[C@H]4C[C@H](OC)[C@@H](O)[C@H](C)O4)[C@H](C)O3)[C@@H](C)/C=C/C=C3\CO[C@@H]4[C@H](O)C(C)=C[C@@H](C(=O)O1)[C@]34O)O2 [IVM, Ivermectin]
- IVM-dependent decrease in the chloride conductance (0.5 μM IVM, 740 milliseconds after application, 30 μM ACh): 20 ± 2%
- leftward shift in reversal potential (∆Erev) (30 μM ACh plus 4 μM IVM added after the peak, representative cell): 11 mV
- Kd (IVM applied after activation by ACh, read-out: Kd (kb/kf) for IVM binding to activated receptor): 1.4 µM
- Kd (after activation) relative to IC50/Ki (prior to activation) (Kd […] vs 156 nM): nine times higher
- IVM association rate constant (k forward, kf) (slope of 1/τIVM vs IVM concentration, 30 μM ACh, 26 cells): 290800 M^−1⋅s^−1
